Format in all cases: cell-based
Assay [1] concerns the target Met (phospho-Met, HGF-stimulated PC-3 prostate cancer cells) (Homo sapiens (Human), UniProt P08581). The assay can be described thus: Met autophosphorylation ELISA in PC-3 cells (Example F). The following applies: cellular activity, read-out: c-Met IC50. The method, then: PC-3 prostate cancer cells (ATCC #CRL-1435) were seeded at 4×10^4 cells/well onto 24-well plates (Greiner #662165), in DMEM (Thermo Fisher #11995-040) containing 10% FBS (Thermo Fisher #26140-079), 1% MEM NEAA (Thermo Fisher #11140-050), 1% GlutaMax (Thermo Fisher #35050-061), and 1% Penicillin Streptomycin (Thermo Fisher #15140-122). PC-3 cells were incubated at 37° C., 5% CO2 for 24 h and then starved for 3 h in serum-free medium. Test compounds were serially diluted to produce an 8-point dose curve in fresh serum-free medium to a final concentration of 0.3% DMSO (vehicle) and added to the cells and incubated for 1 h. Cells were then stimulated with 100 ng/mL recombinant human HGF (R&D Systems #294-HG-250) for 10 min, washed with cold PBS, and immediately lysed with […] of cold 1× lysis buffer [20 mM Tris, 137 mM sodium chloride, 2 mM EDTA, 10% glycerol, 1% NP-40 alternative, 1 mM activated sodium orthovanadate, 1 mM PefaBloc SC (Sigma-Aldrich #11429868001), protease/phosphatase inhibitor tablet (Thermo Fisher #A32959)]. Lysates were clarified by centrifugation and 100 μL/well added into the PathScan phospho-Met (panTyr) Sandwich ELISA (Cell Signaling Technology #7333). Assay was performed according to manufacturer's instructions. Positive control wells (100% activity) contained HGF-stimulated, DMSO-treated cell lysates. Negative control wells (0% activity) contained HGF-stimulated, reference inhibitor-treated cell lysates. IC50 values were calculated by nonlinear regression analysis using a 4-parameter logistic curve fit in ActivityBase XE (IDBS).

Assay [2] deals with KDR (phospho-KDR, VEGF165-stimulated HUVEC cells) (Homo sapiens (Human), UniProt P35968). Put plainly: KDR autophosphorylation ELISA in HUVEC cells (Example G). To be noted: cellular activity. The method, then: Human umbilical vein endothelial cells or HUVEC (Lonza #C2519A) were seeded at 2×10^4 cells/well onto 96-well plates (Corning #3904), in EGM-2 growth medium (Lonza #CC-3162) containing 1% Penicillin Streptomycin (Thermo Fisher #15140-122). HUVEC cells were incubated at 37° C., 5% CO2 for 24 h and then starved for 24 h in serum-free EBM-2 basal medium (Lonza #CC-3156) containing 1% Penicillin Streptomycin. Test compounds were serially diluted to produce an 8-point dose curve in fresh serum-free medium to a final concentration of 0.3% DMSO (vehicle) and added to the cells and incubated for 1 h. Cells were then stimulated with 100 ng/mL recombinant human VEGF165 (R&D Systems #293-VE-500) for 5 min, washed with cold PBS, and immediately lysed with […] of cold 1× lysis buffer [20 mM Tris, 137 mM sodium chloride, 2 mM EDTA, 10% glycerol, 1% NP-40 alternative, 1 mM activated sodium orthovanadate, 1 mM PefaBloc SC (Sigma-Aldrich #11429868001), protease/phosphatase inhibitor tablet (Thermo Fisher #A32959)]. Lysates were collected and 100 μL/well added into the human phospho-KDR DuoSet IC ELISA (R&D Systems #DYC1766-2). Assay was performed according to manufacturer's instructions and sample phospho-KDR concentrations were extrapolated using human phospho-KDR control (R&D Systems #841421) as a standard. Positive control wells (100% activity) contained VEGF165-stimulated, DMSO-treated cell lysates. Negative control wells (0% activity) contained non-stimulated cell lysates. IC50 values were calculated by nonlinear regression analysis using a 4-parameter logistic curve fit in ActivityBase XE (IDBS).
Sequence of KDR (phospho-KDR, VEGF165-stimulated HUVEC cells) (P35968 20-1356): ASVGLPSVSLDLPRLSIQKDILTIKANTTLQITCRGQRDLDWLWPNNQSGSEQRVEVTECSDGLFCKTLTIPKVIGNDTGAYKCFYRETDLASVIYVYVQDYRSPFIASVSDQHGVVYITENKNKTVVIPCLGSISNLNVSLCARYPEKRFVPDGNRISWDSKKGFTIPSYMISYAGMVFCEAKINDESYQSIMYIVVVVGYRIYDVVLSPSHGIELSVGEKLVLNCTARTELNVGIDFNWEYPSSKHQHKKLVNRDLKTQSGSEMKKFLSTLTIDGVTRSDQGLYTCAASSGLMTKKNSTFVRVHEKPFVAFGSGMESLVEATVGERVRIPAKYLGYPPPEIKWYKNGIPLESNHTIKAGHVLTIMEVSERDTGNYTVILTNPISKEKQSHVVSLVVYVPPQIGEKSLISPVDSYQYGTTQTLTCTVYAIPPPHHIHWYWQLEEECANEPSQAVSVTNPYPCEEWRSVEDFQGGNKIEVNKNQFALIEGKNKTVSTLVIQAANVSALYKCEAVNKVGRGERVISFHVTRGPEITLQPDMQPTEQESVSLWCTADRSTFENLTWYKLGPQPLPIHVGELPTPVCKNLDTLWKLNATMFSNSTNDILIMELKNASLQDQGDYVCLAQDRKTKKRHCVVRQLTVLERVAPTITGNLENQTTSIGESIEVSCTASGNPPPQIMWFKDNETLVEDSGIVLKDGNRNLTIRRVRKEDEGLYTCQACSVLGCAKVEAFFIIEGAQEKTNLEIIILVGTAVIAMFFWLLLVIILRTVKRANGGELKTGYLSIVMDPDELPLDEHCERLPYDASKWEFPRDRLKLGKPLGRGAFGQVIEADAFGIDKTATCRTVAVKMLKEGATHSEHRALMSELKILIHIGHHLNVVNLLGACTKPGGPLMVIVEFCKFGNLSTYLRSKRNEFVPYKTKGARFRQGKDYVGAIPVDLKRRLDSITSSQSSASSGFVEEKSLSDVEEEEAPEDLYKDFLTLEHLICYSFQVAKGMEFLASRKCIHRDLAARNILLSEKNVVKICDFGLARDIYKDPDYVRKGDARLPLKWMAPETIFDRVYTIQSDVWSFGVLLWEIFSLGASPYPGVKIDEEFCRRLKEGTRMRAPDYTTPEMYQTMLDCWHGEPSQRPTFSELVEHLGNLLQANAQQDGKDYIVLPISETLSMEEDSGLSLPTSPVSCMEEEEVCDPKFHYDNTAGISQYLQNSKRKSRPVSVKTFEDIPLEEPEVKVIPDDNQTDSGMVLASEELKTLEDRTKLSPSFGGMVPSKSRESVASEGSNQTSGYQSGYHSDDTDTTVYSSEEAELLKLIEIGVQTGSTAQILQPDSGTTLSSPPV

Assay [3] addresses Mer (phospho-Mer, MERTK-transfected 293A cells) (Homo sapiens (Human), UniProt Q12866). Put plainly: Mer autophosphorylation ELISA in transient transfected 293A cells (Example H). The following applies: cellular activity. The method, then: 293A cells (Thermo Fisher #R70507) were seeded at 1.5×10^6 cells/well onto 100 mm dish (Greiner #664169), in DMEM (Thermo Fisher #11995-040) containing 10% FBS (Thermo Fisher #26140-079), 1% MEM NEAA (Thermo Fisher #11140-050), 1% GlutaMax (Thermo Fisher #35050-061), and 1% Penicillin Streptomycin (Thermo Fisher #15140-122). 293A cells were incubated at 37° C., 5% CO2 for 24 h and then transfected with […] MERTK DNA (Genecopoeia #EX-Z8208-M02) using TransIT LT1 transfection reagent (Mirus-Bio #MIR2305). After 24 h incubation, the transfected 293A cells were seeded at 1×10^5 cells/well onto 96-well plates (Corning #3904) in DMEM growth medium overnight. Test compounds were serially diluted to produce an 8-point dose curve in fresh serum-free medium to a final concentration of 0.3% DMSO (vehicle) and added to the cells and incubated for 1 h. Cells were then immediately lysed with 150 μL of cold 1× lysis buffer [20 mM Tris, 137 mM sodium chloride, 2 mM EDTA, 10% glycerol, 1% NP-40 alternative, 1 mM activated sodium orthovanadate, 1 mM PefaBloc SC (Sigma-Aldrich #11429868001), protease/phosphatase inhibitor tablet (Thermo Fisher #A32959)]. Lysates were clarified by centrifugation and 50 µL/well added in to the human phospho-Mer DuoSet IC ELISA (R&D Systems #DYC2579-2). Assay was performed according to manufacturer's instructions and sample phospho-Mer concentrations were extrapolated using human phospho-Mer control (R&D Systems #841793) as a standard. Positive control wells (100% activity) contained DMSO-treated cell lysates. Negative control wells (0% activity) contained reference inhibitor-treated cell lysates. IC50 values were calculated by nonlinear regression analysis using a 4-parameter logistic curve fit in ActivityBase XE (JDBS).

Setting [4] is: Met autophosphorylation ELISA in PC-3 cells.
Setting [5] is: KDR autophosphorylation ELISA in HUVEC cells.
[6] abbreviates: Mer autophosphorylation ELISA in transient transfected 293A cells.

Where two headings read alike, the source gives them in different places.

Results on 14 molecules are retold here after US12371428B2 (Exelixis, Inc., priority 2019, dated 2025).

Sequence of Mer (phospho-Mer, MERTK-transfected 293A cells) (Q12866 21-999): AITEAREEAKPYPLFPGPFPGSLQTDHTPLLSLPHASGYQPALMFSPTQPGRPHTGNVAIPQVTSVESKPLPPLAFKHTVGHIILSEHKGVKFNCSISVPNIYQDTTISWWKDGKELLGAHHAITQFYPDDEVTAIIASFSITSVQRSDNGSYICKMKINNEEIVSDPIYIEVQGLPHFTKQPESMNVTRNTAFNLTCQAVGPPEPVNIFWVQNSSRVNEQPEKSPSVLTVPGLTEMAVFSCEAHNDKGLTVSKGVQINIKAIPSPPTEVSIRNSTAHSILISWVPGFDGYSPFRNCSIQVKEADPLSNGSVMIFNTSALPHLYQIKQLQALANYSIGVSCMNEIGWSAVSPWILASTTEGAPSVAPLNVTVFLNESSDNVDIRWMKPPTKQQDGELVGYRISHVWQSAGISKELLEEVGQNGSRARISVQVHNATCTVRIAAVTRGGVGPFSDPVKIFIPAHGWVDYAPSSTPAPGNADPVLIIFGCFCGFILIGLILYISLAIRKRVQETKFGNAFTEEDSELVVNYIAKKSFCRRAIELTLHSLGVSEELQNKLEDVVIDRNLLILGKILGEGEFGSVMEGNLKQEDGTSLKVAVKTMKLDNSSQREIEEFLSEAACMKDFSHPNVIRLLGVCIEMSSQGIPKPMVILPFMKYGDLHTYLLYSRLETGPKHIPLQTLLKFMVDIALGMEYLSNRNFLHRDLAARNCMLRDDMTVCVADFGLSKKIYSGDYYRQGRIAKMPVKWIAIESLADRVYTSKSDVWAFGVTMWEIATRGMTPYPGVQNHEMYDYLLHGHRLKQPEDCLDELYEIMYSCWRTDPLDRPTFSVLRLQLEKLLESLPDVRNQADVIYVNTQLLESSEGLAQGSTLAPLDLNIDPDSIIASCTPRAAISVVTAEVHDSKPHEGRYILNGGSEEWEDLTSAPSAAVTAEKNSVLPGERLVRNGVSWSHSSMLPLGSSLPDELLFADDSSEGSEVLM
Sequence of Met (phospho-Met, HGF-stimulated PC-3 prostate cancer cells) (P08581 25-1390): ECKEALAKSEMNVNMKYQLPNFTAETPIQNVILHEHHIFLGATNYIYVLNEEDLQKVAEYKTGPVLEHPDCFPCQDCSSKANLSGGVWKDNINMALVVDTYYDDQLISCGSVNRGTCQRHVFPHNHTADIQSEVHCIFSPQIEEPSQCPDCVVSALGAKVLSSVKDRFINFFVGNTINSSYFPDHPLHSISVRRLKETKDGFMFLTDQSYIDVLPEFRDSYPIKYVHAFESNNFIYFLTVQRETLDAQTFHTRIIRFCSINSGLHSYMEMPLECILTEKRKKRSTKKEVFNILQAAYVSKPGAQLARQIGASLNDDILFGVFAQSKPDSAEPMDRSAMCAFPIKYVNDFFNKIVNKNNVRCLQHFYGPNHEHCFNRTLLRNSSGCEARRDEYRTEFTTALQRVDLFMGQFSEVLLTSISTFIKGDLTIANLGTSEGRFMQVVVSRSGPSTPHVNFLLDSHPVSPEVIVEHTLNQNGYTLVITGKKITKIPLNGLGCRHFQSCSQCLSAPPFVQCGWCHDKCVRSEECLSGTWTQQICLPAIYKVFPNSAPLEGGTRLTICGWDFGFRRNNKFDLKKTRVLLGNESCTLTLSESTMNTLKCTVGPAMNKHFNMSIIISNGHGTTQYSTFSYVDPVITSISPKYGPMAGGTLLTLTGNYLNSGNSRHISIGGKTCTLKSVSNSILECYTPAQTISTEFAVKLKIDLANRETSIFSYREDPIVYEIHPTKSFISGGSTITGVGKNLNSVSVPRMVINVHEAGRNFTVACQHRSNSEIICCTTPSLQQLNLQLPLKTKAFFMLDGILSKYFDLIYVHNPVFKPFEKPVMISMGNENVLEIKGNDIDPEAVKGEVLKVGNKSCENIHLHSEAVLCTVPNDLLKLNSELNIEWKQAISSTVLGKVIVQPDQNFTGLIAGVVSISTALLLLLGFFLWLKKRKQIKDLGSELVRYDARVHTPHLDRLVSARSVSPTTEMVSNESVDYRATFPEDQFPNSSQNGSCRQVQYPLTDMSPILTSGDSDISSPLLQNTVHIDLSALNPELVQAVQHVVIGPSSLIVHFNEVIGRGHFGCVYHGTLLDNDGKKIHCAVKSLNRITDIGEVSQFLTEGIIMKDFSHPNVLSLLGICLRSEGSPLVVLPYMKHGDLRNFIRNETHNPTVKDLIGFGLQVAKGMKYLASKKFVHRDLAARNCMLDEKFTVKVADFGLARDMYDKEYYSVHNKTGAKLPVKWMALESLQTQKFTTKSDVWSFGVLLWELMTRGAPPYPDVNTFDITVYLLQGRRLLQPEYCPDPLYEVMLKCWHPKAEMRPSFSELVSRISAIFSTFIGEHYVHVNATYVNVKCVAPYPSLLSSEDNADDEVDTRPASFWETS

`CCOc1ccn(-c2ccc(F)cc2)c(=O)c1C(=O)Nc1ccc(Oc2ccnc3cc(OC)c(OC)nc23)c(F)c1` [Compound 715, N-[4-[(6,7-dimethoxy-1,5-naphthyridin-4-yl)oxy]-3-fluorophenyl]-4-ethoxy-1-(4-fluorophenyl)-2-oxopyridine-3-carboxamide]: the half-maximal inhibitory concentration (IC50) in assay [1] (setting [4]), in assay [2] (setting [5]) and in assay [3] (setting [6]) was less than 100 nM each time.

Take `COc1cc2nccc(Oc3ccc(NC(=O)c4nn(CC(F)F)c(C)c(-c5ccc(F)cc5)c4=O)cc3)c2nc1OC` [Compound 776, 1-(2,2-difluoroethyl)-N-[4-[(6,7-dimethoxy-1,5-naphthyridin-4-yl)oxy]phenyl]-5-(4-fluorophenyl)-6-methyl-4-oxopyridazine-3-carboxamide]: the figures for the IC50 in assay [1] (setting [4]), in assay [2] (setting [5]) and in assay [3] (setting [6]) were less than 100 nM, more than 300 nM and less than 100 nM, respectively.

Regarding `COc1ccc(-c2c(C)nc(C)c(C(=O)Nc3ccc(Oc4ccnc5cc(OC)c(OC)nc45)c(F)c3)c2O)c(OC)c1` [Compound 713, N-[4-[(6,7-dimethoxy-1,5-naphthyridin-4-yl)oxy]-3-fluorophenyl]-5-(2,4-dimethoxyphenyl)-4-hydroxy-2,6-dimethylpyridine-3-carboxamide], the half-inhibitory concentration (IC50) in assay [1] (setting [4]) and in assay [3] (setting [6]) was less than 100 nM in each case.

With `CCOc1ccn(-c2ccc(F)cc2)c(=O)c1C(=O)Nc1ccc(Oc2ccnc3nc(OC)c(OCCOC)cc23)c(F)c1` [Compound 761, 4-ethoxy-N-[3-fluoro-4-[[7-methoxy-6-(2-methoxyethoxy)-1,8-naphthyridin-4-yl]oxy]phenyl]-1-(4-fluorophenyl)-2-oxopyridine-3-carboxamide], the 50% inhibitory concentration (IC50) was less than 100 nM in assay [1] (setting [4]), more than 300 nM in assay [2] (setting [5]) and less than 100 nM in assay [3] (setting [6]).

With `COc1cc2nccc(Oc3cc(F)c(NC(=O)c4c(C)nc(C)c(-c5ccc(F)cc5F)c4O)cc3F)c2nc1OC` [Compound 777, 5-(2,4-difluorophenyl)-N-[4-[(6,7-dimethoxy-1,5-naphthyridin-4-yl)oxy]-2,5-difluorophenyl]-4-hydroxy-2,6-dimethylpyridine-3-carboxamide], the IC50 in assay [1] (setting [4]), in assay [2] (setting [5]) and in assay [3] (setting [6]) was less than 100 nM in each case.

As for `COc1cc2nccc(Oc3ccc(NC(=O)c4cc(C(C)=O)c(C)n(-c5ccc(F)cc5C)c4=O)cc3F)c2nc1OC` [Compound 720, 5-acetyl-N-[4-[(6,7-dimethoxy-1,5-naphthyridin-4-yl)oxy]-3-fluorophenyl]-1-(4-fluoro-2-methylphenyl)-6-methyl-2-oxopyridine-3-carboxamide], the half-inhibitory concentration (IC50) is less than 100 nM in assay [1] (setting [4]), more than 300 nM in assay [2] (setting [5]) and less than 100 nM in assay [3] (setting [6]).

For the molecule `CCOc1ccn(-c2ccc(F)cc2)c(=O)c1C(=O)Nc1ccc(Oc2ccnc3cc(OC)c(OC)nc23)cc1` [Compound 718, N-[4-[(6,7-dimethoxy-1,5-naphthyridin-4-yl)oxy]phenyl]-4-ethoxy-1-(4-fluorophenyl)-2-oxopyridine-3-carboxamide], the IC50 in assay [1] (setting [4]) is less than 100 nM; in assay [2] (setting [5]) it was 100 to 300 nM; in assay [3] (setting [6]), less than 100 nM.

Consider `COc1cnc2c(Oc3ccc(NC(=O)c4cnc(C)c(-c5ccc(F)c(F)c5)c4O)cc3F)ccnc2c1` [Compound 706, 5-(3,4-difluorophenyl)-N-[3-fluoro-4-[(7-methoxy-1,5-naphthyridin-4-yl)oxy]phenyl]-4-hydroxy-6-methylpyridine-3-carboxamide], for which the half-maximal inhibitory concentration (IC50) in assay [1] (setting [4]), in assay [2] (setting [5]) and in assay [3] (setting [6]) was less than 100 nM in each case.

As to `COc1cnc2c(Oc3ccc(NC(=O)c4c(C)n(C)c(C)c(-c5ccc(F)cc5OC)c4=O)cc3F)ccnc2c1` [Compound 818, N-[3-fluoro-4-[(7-methoxy-1,5-naphthyridin-4-yl)oxy]phenyl]-5-(4-fluoro-2-methoxyphenyl)-1,2,6-trimethyl-4-oxopyridine-3-carboxamide], the figures for the IC50 in assay [1] (PC-3 cells), in assay [2] (HUVEC cells) and in assay [3] (transfected 293A cells) were less than 100 nM, more than 300 nM and less than 100 nM, respectively.

With `COc1cnc2c(Oc3ccc(NC(=O)c4c(C)n(CC(F)(F)F)cc(-c5ccc(F)cc5)c4=O)cc3F)ccnc2c1` [Compound 790, N-[3-fluoro-4-[(7-methoxy-1,5-naphthyridin-4-yl)oxy]phenyl]-5-(4-fluorophenyl)-2-methyl-4-oxo-1-(2,2,2-trifluoroethyl)pyridine-3-carboxamide], the results for the 50% inhibitory concentration (IC50) in assay [1] (setting [4]), in assay [2] (setting [5]) and in assay [3] (setting [6]) were less than 100 nM, more than 300 nM and less than 100 nM, respectively.

For `COc1cc2nccc(Oc3ccc(NC(=O)c4c(C)c(C)c(C)n(-c5ccccc5)c4=O)cc3F)c2nc1OC` [Compound 755, N-[4-[(6,7-dimethoxy-1,5-naphthyridin-4-yl)oxy]-3-fluorophenyl]-4,5,6-trimethyl-2-oxo-1-phenylpyridine-3-carboxamide], the IC50 in assay [1] (setting [4]) was less than 100 nM; in assay [2] (setting [5]), 100 to 300 nM; in assay [3] (setting [6]) it was less than 100 nM.

For the molecule `COc1cnc2c(Oc3ccc(NC(=O)c4c(C)n(C)c(C)c(-c5ccc(F)c(C)c5)c4=O)cc3F)ccnc2c1` [Compound 819, N-[3-fluoro-4-[(7-methoxy-1,5-naphthyridin-4-yl)oxy]phenyl]-5-(4-fluoro-3-methylphenyl)-1,2,6-trimethyl-4-oxopyridine-3-carboxamide], the 50% inhibitory concentration (IC50) is less than 100 nM in assay [1] (PC-3 cells), more than 300 nM in assay [2] (HUVEC cells) and less than 100 nM in assay [3] (transfected 293A cells).

Turning to `COc1cc2nccc(Oc3ccc(NC(=O)c4c(C)n(CC(F)(F)F)cc(-c5ccc(F)cc5C)c4=O)cc3F)c2nc1OC` [Compound 802, N-[4-[(6,7-dimethoxy-1,5-naphthyridin-4-yl)oxy]-3-fluorophenyl]-5-(4-fluoro-2-methylphenyl)-2-methyl-4-oxo-1 (2,2,2-trifluoroethyl)pyridine-3-carboxamide], the IC50 in assay [1] (PC-3 cells) and in assay [3] (transfected 293A cells) was less than 100 nM in each case.

For the molecule `COc1cc2c(Oc3ccc(NC(=O)c4nc(C)c(C)n(-c5ccc(F)cc5)c4=O)cc3F)ccnc2cn1` [Compound 714, N-[3-fluoro-4-[(6-methoxy-1,7-naphthyridin-4-yl)oxy]phenyl]-4-(4-fluorophenyl)-5,6-dimethyl-3-oxopyrazine-2-carboxamide], the half-inhibitory concentration (IC50) in assay [1] (setting [4]) and in assay [3] (setting [6]) was less than 100 nM throughout.
